Experimental data published in US20250236607A1, “CYCLIN-DEPENDENT KINASE 9 (CDK9) DEGRADERS AND METHODS OF USING THEREOF” (OHIO STATE INNOVATION FOUNDATION, priority 2022, published 2025).
Values after ≈ are worked out from the molar mass of the structure shown. Values joined by “and” are separate entries in the source; they are usually repeats but may differ in a detail not shown here. Equal entries are not always repeated. Where two headings read alike, the source gives them in different places.

Key:
[1] = target: T1, CDK9 (Homo sapiens, UniProt P50750+Q96SW2); test: CDK9 degradation potency (DC50) of VIP152-based degraders; assay type: cell-based; details: VIP152-based series
T1 construct: endogenous in cells
From the text: (§1) Through amide coupling using I-ethyl-3-carbodiimide hydrochloride (EDC.HCl), the alkynyl derivatives of 4.16, 4.29 and 4.30 were synthesized. Using these VIP152-derivatives, degraders 4.31, 4.33 and 4.34 were synthesized using click chemistry. Degrader 4.32 was also synthesized using amide coupling conditions with (1-[Bis([…])methylene]-1H-1,2,3-triazolo[4,5-b]pyridinium 3-oxide hexafluorophosphate (HATU) and the carboxylic acid 4.28. Scheme 7 illustrates the synthesis of this initial series. The series was evaluated for cytotoxicity against MOLM13 cells (IC50) and for their CDK9 degradation potency (DC50). The results are provided in Table 3.

[2] = Chromatographic log D determination (log k′80); assay type: physicochemical; details: chromatographic log D, PLRP-S column, pH 7.72
Method: Chromatographic Log D Determination. Test samples were prepared from 10 mM stock solutions in DMSO, to make 122 μM solutions in acetonitrile. Retention times were determined on a Shimadzu High Performance Liquid Chromatography (HPLC) system with Agilent PLRP-S column, 100 Å, 5 um particle size, 50×4.6 mm (part no.: PL1512-1500) with 1 mL/min flow rate. A 65 mM aqueous solution of ammonium acetate was prepared in water and diluted with acetonitrile to give 0.1% ammonium acetate 20:80 acetonitrile solution with pH 7.72. Eluents were detected with UV spectrophotometry at 337 nm. As a standard set, the retention times of β-estradiol, nifedipine, quinoline, phenol and 2-nitrophenol were determined (log k′80) and the dead time was extrapolated based on the reported log k′80 values originally reported by Caron et. al (log k′80*). The average value of the dead time for the standard set was 0.3001 minutes. Therefore, for consistency, 0.3 minutes was used as the dead time for all test samples. Experiments were performed in triplicate with a maximum percent standard deviation of 6.85%.

[3] = tested on: MOLM13 cells; test: Cytotoxicity against MOLM13 cells; assay type: cell-based
From the text: as §1

[4] = Kinetic solubility assay; details: kinetic solubility, PBS pH 7.4; for solubility at 1.5 h: phosphate buffered saline, pH 7.4, aqueous buffer, kinetic from dmso stock, Solubility (μM)
Method: Kinetic Solubility Assay. Kinetic solubility (KS) was measured according to Millipore protocol PC2445 EN00. Test compounds were weighed and diluted with DMSO to 10 mM. From the stock solutions as well as blank (100% DMSO) was taken 17.5 μL and diluted to 500 μM with 332.5 μL of 100 mM phosphate Buffered Saline (PPBS) at pH 7.4 in a 96-well quartz plate. From the 500 μM solutions was taken 150 μL and dispensed into a 96-well Millipore filter plate (Product number: MSSLBPC10). In the quartz plate, serial dilutions were performed down to 0.5 μM using the 100 mM PBS solution, leaving 100 μL of each test sample at 11 different concentrations, representing standards. These steps were performed in triplicate, at minimum, for each test compound. Both plates were shaken on an orbital shaker at 150 rpm for 1.5 hours. The contents of the filter plate were filtered and 100 μL of the filtrate from each well was dispensed into the quartz plate containing standards. The quartz plate was then analyzed using a UV plate reader where absorbance was measured at the relevant wavelength for each compound. After blank subtraction, for each test sample, solubility was determined based on the optical density of filtered samples and the equations derived from the corresponding linear standard curve.

[5] = tested on: MOLM13 cells; test: Protein shift experiment, cytotoxicity in FBS vs human serum, MOLM13; assay type: cell-based
From the text: In order to determine the suitability of the lead compounds for advanced biological studies, the four degraders (4.49, 4.62, 4.72 and 4.78) were selected for a protein-shift analysis due to their higher potency and solubility.

[6] = tested on: MV411 cells; test: MTS cytotoxicity assay against MV411 cells; assay type: cell-based; details: Homo sapiens, MV4-11
Method: (§2) The obtained compounds were tested in biological experiments to measure their potency in inhibiting the growth of AML cells and in their degradation of CDK9. These measurements are reported as half-maximum growth inhibitory and half-maximum degradation concentrations, IC50s and DC50s, respectively. Maximum percent degradation (Dmax) values were also obtained during the CDK9 degradation assessments. The common MTS assay was used to acquire the IC50 values, while the DC50 values were obtained using an automated western blot experiment. These values are presented in Table 2, along with pIC50 (log(nM IC50)) to more accurately reflect the differences/lack thereof in in vitro cytotoxicity. The notation “N:N*” represents the number of linker atoms on each side of the rigid triazole ring for a given degrader. Predicted log D values, calculated using the ChemAxon […], are also provided for each degrader. To characterize the physicochemical properties of the new degrader series, two additional assays were performed: a kinetic aqueous solubility assay and the chromatographic log D experiment described earlier. Aqueous solubility is shown in μM while experimentally determined log D is shown as log k′80. Details regarding the execution of each experiment are provided below.

[7] = target: T1, CDK9; test: CDK9 degradation, automated western blot, triazole-containing AT7519 degraders (MV411); assay type: cell-based; details: for DC50: CDK9 degradation, MV411 cells; for Dmax: MV4-11, maximum percent CDK9 degradation
Method: as §2

[8] = cytotoxicity, MOLM13 cells, read-out: IC50
[9] = defined as log(nM IC50), MV411, read-out: pIC50 (converted)
[10] = growth inhibition, MV411 cells, MTS, read-out: IC50
[11] = Homo sapiens, MOLM-13, cytotoxicity, MOLM13 cells, read-out: IC50

T1 sequence (P50750 whole entry): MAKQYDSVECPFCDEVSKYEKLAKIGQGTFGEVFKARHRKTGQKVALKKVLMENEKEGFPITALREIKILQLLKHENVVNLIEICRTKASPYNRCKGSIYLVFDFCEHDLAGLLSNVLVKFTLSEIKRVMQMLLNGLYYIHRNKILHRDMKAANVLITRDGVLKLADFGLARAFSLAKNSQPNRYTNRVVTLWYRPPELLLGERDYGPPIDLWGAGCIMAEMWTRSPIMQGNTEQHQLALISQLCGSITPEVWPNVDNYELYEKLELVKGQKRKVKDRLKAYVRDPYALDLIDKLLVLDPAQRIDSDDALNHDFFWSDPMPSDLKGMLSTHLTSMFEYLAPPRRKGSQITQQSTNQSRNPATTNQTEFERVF
T1 sequence (O60563 whole entry partner): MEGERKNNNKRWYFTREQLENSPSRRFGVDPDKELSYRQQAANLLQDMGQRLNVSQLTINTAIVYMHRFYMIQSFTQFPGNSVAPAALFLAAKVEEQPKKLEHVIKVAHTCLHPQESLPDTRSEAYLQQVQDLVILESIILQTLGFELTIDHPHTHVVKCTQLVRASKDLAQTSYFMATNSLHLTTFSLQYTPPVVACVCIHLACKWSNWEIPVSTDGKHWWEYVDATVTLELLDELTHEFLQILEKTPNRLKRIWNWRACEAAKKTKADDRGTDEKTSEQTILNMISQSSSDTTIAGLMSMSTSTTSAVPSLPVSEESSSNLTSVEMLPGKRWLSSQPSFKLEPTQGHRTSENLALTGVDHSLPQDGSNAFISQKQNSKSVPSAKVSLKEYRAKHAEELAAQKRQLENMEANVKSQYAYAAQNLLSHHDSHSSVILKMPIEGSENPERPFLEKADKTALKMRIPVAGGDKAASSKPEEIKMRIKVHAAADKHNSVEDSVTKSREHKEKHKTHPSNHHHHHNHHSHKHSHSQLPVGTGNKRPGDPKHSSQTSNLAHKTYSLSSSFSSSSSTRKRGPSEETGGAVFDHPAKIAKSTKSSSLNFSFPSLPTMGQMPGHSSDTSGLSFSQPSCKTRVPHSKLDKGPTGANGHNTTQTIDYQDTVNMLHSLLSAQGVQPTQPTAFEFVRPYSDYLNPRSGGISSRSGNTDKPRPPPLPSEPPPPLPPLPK
T1 sequence (Q96SW2 whole entry): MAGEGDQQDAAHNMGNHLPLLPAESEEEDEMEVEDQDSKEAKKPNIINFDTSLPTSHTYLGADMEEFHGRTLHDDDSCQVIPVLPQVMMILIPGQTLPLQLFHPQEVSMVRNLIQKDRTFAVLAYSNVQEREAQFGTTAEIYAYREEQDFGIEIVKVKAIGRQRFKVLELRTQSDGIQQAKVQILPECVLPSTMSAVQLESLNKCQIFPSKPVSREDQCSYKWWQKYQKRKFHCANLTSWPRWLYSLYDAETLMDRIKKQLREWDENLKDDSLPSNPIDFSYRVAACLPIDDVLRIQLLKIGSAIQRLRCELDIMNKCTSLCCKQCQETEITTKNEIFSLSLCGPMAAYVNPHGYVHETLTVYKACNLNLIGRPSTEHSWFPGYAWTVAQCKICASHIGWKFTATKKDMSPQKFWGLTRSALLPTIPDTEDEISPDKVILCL
T1 sequence (Q16531 whole entry partner): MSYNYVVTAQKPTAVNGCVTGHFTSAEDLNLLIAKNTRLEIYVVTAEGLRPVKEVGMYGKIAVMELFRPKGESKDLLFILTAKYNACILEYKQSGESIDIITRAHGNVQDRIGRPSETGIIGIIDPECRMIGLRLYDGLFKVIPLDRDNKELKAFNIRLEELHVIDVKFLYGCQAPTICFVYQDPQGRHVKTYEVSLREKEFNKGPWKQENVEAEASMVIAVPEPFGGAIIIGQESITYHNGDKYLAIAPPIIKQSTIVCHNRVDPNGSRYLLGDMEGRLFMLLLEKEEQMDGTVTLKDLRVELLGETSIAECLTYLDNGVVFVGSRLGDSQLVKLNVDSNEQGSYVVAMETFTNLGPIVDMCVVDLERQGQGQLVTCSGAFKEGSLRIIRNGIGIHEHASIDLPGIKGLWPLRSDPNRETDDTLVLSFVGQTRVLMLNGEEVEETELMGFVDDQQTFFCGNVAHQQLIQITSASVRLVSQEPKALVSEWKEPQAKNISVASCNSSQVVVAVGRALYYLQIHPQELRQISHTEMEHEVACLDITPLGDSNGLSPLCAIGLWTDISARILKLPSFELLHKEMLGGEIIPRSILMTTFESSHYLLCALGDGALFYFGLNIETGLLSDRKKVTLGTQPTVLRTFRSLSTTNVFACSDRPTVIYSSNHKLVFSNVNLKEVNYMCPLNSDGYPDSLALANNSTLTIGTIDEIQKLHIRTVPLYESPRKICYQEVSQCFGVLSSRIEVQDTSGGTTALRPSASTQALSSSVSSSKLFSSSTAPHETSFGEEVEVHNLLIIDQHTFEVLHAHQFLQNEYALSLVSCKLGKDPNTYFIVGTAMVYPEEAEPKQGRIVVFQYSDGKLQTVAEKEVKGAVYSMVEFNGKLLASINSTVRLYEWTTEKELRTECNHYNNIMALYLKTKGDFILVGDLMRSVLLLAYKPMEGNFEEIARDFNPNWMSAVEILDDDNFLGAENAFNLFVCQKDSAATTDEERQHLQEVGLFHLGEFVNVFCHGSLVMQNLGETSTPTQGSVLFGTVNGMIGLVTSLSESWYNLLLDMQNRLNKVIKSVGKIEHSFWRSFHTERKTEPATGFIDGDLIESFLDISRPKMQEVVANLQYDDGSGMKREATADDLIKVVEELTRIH

Molecule | DC50 [1] | logk′80 [2] | IC50 [3, 8] | Solubility [4] | solubility at 1.5 h [4] | IC50 [3, 11] | further results
COc1cc(F)ccc1-c1cc(Nc2cc(CS(C)(=O)=NC(=O)CN3CCC(c4cn(CC(=O)N5CCN(CCCc6cccc7c6C(=O)N(C6CCC(=O)NC6=O)C7=O)CC5)nn4)CC3)ccn2)ncc1F (centres unmarked) [Compound 4.72, 2-(4-(1-(2-(4-(3-(2-(2,6-dioxopiperidin-3-yl)-1,3-dioxoisoindolin-4-yl)propyl)piperazin-1-yl)-2-oxoethyl)-1H-1,2,3-triazol-4-yl)piperidin-1-yl)-N-(((2-((5-fluoro-4-(4-fluoro-2-methoxyphenyl)pyridin-2-yl)amino)pyridin-4-yl)methyl)(methyl) (oxo)-16-sulfaneylidene) acetamide] | 210 nM | 0.11 | 180 nM | 16 µM and 15.7 µM | – | – | IC50 ([3]; MOLM13, read-out: potency): 150 nM; IC50 ([5]; MOLM13, fetal bovine serum, read-out: IC50 (μM) FBS): 0.47 µM; IC50 ([5]; MOLM13, human serum, read-out: IC50 (μM) HS): 0.55 µM
O=C1CCC(N2C(=O)c3cccc(OCCCn4cc(CCCCCCN5CCC(NC(=O)c6n[nH]cc6NC(=O)c6c(Cl)cccc6Cl)CC5)nn4)c3C2=O)C(=O)N1 (centres unmarked) [Compound 4.8c, 4-(2,6-dichlorobenzamido)-N-(1-(6-(1-(3-((2(2,6-dioxopiperidin-3-yl)-1,3-dioxoisoindolin-4-yl)oxy)propyl)-1H-1,2,3-triazol-4-yl)hexyl)piperidin-4-yl)-1H-pyrazole-3-carboxamide] | – | 0.116 | – | – | 12.9 µM (≈ 10.9 µg/mL) | – | IC50 [6, 9]: 79.4 nM; IC50 [6, 10]: 71.3 nM; DC50 [7]: 98.9 nM; Dmax [7]: 75.3%
O=C1CCC(N2C(=O)c3cccc(OCCCCCCCn4cc(CCCCCCN5CCC(NC(=O)c6n[nH]cc6NC(=O)c6c(Cl)cccc6Cl)CC5)nn4)c3C2=O)C(=O)N1 (centres unmarked) [Compound 4.9a, 4-(2,6-dichlorobenzamido)-N-(1-(6-(1-(7-((2-(2,6-dioxopiperidine-3-yl)-1,3-dioxoisoindolin-4-yl)oxy)heptyl)-1H-1,2,3-triazol-4-yl)hexyl)piperidin-4-yl)-1H-pyrazole-3-carboxamide] | – | 0.184 | – | – | 2.38 µM (≈ 2.15 µg/mL) | – | IC50 [6, 9]: 79.4 nM; IC50 [6, 10]: 72.8 nM; DC50 [7]: 74.6 nM; Dmax [7]: 86.2%
COc1cc(F)ccc1-c1cc(Nc2cc(CS(C)(=O)=NC(=O)CCC(=O)N3CC(N4CCC(Cn5cc(CNC(=O)CNc6cccc7c6C(=O)N(C6CCC(=O)NC6=O)C7=O)nn5)CC4)C3)ccn2)ncc1F (centres unmarked) [Compound 4.90, 4-{3-[4-({4-[(2˜ {[2˜ (2,6-dioxopiperidin-3-yl)-1,3-dioxo-2,3-dihydro-1H-isoindol-4-yl]amino}acetamido)methyl]-1H-1,2,3-triazol-1-yl}methyl)piperidin-1-yl]azetidin-1-yl}-N-{[(2-{[5-fluoro-4-(4-fluoro-2-methoxyphenyl)pyridin-2-yl]amino}pyridin-4-yl)methyl](methyl)oxo-λ^6-sulfanylidene}-4-oxobutanamide] | 900 nM | 0.07 | – | – | 8.3 µM (≈ 8.72 µg/mL) | 1380 nM | –
COc1cc(F)ccc1-c1cc(Nc2cc(CS(C)(=O)=NC(=O)CN3CCN(Cc4cn(CC(=O)N5CCN(CC#Cc6cccc7c6C(=O)N(C6CCC(=O)NC6=O)C7=O)CC5)nn4)CC3)ccn2)ncc1F (centres unmarked) [Compound 4.51, 2-(4-((1-(2-(4-(3-(2-(2,6-dioxopiperidin-3-yl)-1,3-dioxoisoindolin-4-yl)prop-2-yn-1-yl)piperazin-1-yl)-2-oxoethyl)-1H-1,2,3-triazol-4-yl)methyl)piperazin-1-yl)-N-(((2-((5-fluoro-4-(4-fluoro-2-methoxyphenyl)pyridin-2-yl)amino)pyridin-4-yl)methyl)(methyl)(oxo)-16-sulfaneylidene)acetamide] | 370 nM | 0.09 | 1540 nM | 14.8 µM (≈ 15.3 µg/mL) | – | – | –
1-((1-(1-((2-(2,6-dioxopiperidin-3-yl)-1,3-dioxoisoindolin-4-yl)glycyl)azetidin-3-yl)-1H-1,2, 3-triazol-4-yl)methyl)-N-(((2-((5-fluoro˜4-(4-fluoro-2-methoxyphenyl)pyridin-2-yl)amino)pyridin-4-yl)methyl)(methyl)(oxo)-16-sulfaneylidene)piperidine-3-carboxamide [Compound 4.63] | 460 nM | 0.19 | 550 nM | 10.8 µM | – | – | –
COc1cc(F)ccc1-c1cc(Nc2cc(CS(C)(=O)=NC(=O)CN3CCN(Cc4cn(C5CN(C(=O)CNc6cccc7c6C(=O)N(C6CCC(=O)NC6=O)C7=O)C5)nn4)CC3)ccn2)ncc1F (centres unmarked) [Compound 4.49, 2-(4-((1-(1-((2-(2,6-dioxopiperidin-3-yl)-1,3-dioxoisoindolin-4-yl)glycyl)azetidin-3-yl)-1H-1,2,3-triazol-4-yl)methyl)piperazin-1-yl)-N-(((2-((5-fluoro-4-(4-fluoro-2-methoxyphenyl)pyridin-2-yl)amino)pyridin-4-yl)methyl)(methyl) (oxo)-16-sulfaneylidene) acetamide] | 220 nM | – | – | 58.2 µM (≈ 57 µg/mL) | ~60 µM (≈ 58.8 µg/mL) | 420 nM | IC50 ([3]; Homo sapiens, MOLM-13, text, MOLM13, read-out: potency): 420 nM; IC50 ([5]; Homo sapiens, MOLM-13, MOLM13, fetal bovine serum, read-out: IC50 (μM) FBS): 0.67 µM; IC50 ([5]; MOLM-13, MOLM13, human serum, read-out: IC50 (μM) HS): 1.24 µM
COc1cc(F)ccc1-c1cc(Nc2cc(CS(C)(=O)=NC(=O)CN3CCN(Cc4cn(CCCOc5cccc6c5C(=O)N(C5CCC(=O)NC5=O)C6=O)nn4)CC3)ccn2)ncc1F (centres unmarked) [Compound 4.39, 2-(4-((1-(3-((2-(2,6-dioxopiperidin-3-yl)-1,3-dioxoisoindolin-4-yl)oxy)propyl)-1H-1,2,3-triazol-4-yl)methyl)piperazin-1-yl)-N-(((2-((5-fluoro-4-(4-fluoro-2-methoxyphenyl)pyridin-2-yl)amino)pyridin-4-yl)methyl)(methyl)(oxo)-16-sulfaneylidene)acetamide] | 640 nM | 0.10 | – | – | 26.5 µM (≈ 24.5 µg/mL) | 830 nM | –
COc1cc(F)ccc1-c1cc(Nc2cc(CS(C)(=O)=NC(=O)CN3CCC(COc4cccc5c4C(=O)N(C4CCC(=O)NC4=O)C5=O)CC3)ccn2)ncc1F (centres unmarked) [Compound 4.79, 2-[4-({[2-(2,6-dioxopiperidin-3-yl)-1,3-dioxo-2,3-dihydro-1H-isoindol-4-yl]oxy}methyl)piperidin-1-yl]-N-{[(2-{[5˜fluoro-4-(4-fluoro-2-methoxyphenyl)pyridin-2-yl]amino}pyridin-4-yl)methyl](methyl)oxo-26-sulfanylidene}acetamide] | 360 nM | 0.20 | – | – | 3.1 µM (≈ 2.53 µg/mL) | 190 nM | –
COc1cc(F)ccc1-c1cc(Nc2cc(CS(C)(=O)=NC(=O)C3CCCN(Cc4cn(CC(=O)N5CCN(CC#Cc6cccc7c6C(=O)N(C6CCC(=O)NC6=O)C7=O)CC5)nn4)C3)ccn2)ncc1F (centres unmarked) [Compound 4.64, 1-((1-(2-(4-(3-(2-(2,6-dioxopiperidin-3-yl)-1,3-dioxoisoindolin-4-yl)prop-2-yl-1-yl)piperazin-1-yl)-2-oxoethyl)-1H-1,2,3-triazol-4-yl)methyl)-N-(((2-((5-fluoro-4-(4-fluoro-2-methoxyphenyl)pyridin-2-yl)amino)pyridin-4-yl)methyl)(methyl)(oxo)-16-sulfaneylidene)piperidine-3-carboxamide] | 780 nM | 0.14 | 850 nM | 33.0 µM (≈ 33.6 µg/mL) | – | – | –
